Reference: patent US7816096B2, “Assay solution compositions and methods for GPCR arrays” (priority 2003, dated 2010)
pIC50: −log10 of the molar value. Blank lines part the entries; values can stand above or below the molecule they belong to.

Assays:
[1] = target: neurotensin receptor Subtype-1 (NTR1) (Homo sapiens, UniProt P30989); details: 100 mM NaCl present or absent; 2 nM Bodipy-TMR-neurotensin 2-13
Procedure: (§1) For the binding assays, each individual array was incubated with 10 μl of a solution containing labeled ligand(s) at a particular concentration in the absence and presence of varying amounts (0-1000 nM) of unlabeled compounds. The binding buffer used for all experiments was Tris-HCl (50 mM, pH 7.4) containing 10 mM MgCl2, 0.1% BSA and 1 mM EDTA.
(§2) After executing the binding assays, the microarrays are washed and dried, and then examined using Genepix scanner 4000 (Axon Instruments, Union City, Calif.). Using Genepix software, resulting data is analyzed. Each data point in the plots represents the average of at least three replicate micospots. Using non-linear regression analysis (Graphpad PRISM, Graphpad Software Inc., San Diego, Calif.), one can estimate Kd and IC50.

[2] = target: NTR1 (Rattus norvegicus, UniProt P20789); details: cited from earlier work
[3] = target: T1, muscarinic receptor subtype 1 (M1) (Homo sapiens, UniProt P11229); experiment: multiplexed competitive binding assay on GPCR microarray; details: 1 uM unlabeled telenzepine; cocktail of labeled ligands incl. 2 nM Cy3B-telenezepine
T1 sequence (P11229 1-460): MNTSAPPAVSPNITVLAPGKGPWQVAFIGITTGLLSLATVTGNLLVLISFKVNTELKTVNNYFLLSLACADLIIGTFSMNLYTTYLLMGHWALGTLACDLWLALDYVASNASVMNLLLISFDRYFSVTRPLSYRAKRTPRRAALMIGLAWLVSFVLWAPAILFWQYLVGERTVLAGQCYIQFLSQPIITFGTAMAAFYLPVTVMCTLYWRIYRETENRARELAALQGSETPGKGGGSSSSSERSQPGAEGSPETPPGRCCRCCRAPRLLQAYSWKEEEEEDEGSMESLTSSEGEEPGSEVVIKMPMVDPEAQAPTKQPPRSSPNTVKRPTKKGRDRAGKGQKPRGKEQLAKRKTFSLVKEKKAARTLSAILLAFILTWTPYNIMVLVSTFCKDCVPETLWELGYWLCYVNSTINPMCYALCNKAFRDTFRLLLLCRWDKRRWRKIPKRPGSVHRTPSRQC
Procedure: FIGS. 2C & 2D, respectively, are graphs of the percent of total detected signal in the presence and absence of 1 μM telenzepine.
A single buffered binding solution composition, according to the invention—including for example, 50 mM Tris-HCl, pH 7.4, 10 mM MgCl2, 1 mM EDTA, 0.1 wt. % BSA—is used for multiplexed competitive binding assay. […] Telenzepine is an antagonist for M1 receptor alone.
as §1, §2

Sequence of NTR1 (P20789 whole entry): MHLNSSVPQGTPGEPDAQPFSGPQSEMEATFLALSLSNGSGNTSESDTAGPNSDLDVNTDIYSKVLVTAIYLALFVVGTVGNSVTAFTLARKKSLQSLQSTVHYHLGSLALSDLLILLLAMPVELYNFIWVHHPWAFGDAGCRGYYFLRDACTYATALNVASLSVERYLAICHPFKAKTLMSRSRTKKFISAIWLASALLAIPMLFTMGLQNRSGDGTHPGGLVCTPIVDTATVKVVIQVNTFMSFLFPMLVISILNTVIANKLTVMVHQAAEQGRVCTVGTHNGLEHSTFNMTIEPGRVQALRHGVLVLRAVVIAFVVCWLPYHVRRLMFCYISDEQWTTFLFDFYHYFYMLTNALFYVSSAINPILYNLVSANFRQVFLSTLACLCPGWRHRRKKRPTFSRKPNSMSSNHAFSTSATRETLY
Sequence of neurotensin receptor Subtype-1 (NTR1) (P30989 whole entry): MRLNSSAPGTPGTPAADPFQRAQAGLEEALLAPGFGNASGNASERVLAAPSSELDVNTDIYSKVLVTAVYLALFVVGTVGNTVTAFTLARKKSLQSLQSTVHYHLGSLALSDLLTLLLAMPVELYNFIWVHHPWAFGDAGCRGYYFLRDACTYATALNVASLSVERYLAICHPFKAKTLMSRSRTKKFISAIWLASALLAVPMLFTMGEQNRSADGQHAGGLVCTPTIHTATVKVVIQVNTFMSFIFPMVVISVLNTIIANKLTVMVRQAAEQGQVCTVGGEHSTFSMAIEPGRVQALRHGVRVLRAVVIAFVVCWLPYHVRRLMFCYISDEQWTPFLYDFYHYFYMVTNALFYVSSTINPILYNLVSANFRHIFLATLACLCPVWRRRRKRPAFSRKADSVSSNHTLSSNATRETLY

Compound: [Cl-].[Na+] [NaCl]
effect on binding of BT-NT to NTR1 (total binding signal) [1]: strongly influences

Compound: [Na+] [sodium ions]
pIC50 ([2]; read-out: IC50 for inhibition of binding of radio-labeled neurotensin to NTR1): 1.74
inhibition of binding of radio-labeled neurotensin to NTR1 ([2]; sodium ions at a concentration as low as about 20 mM): at least 50%

inhibition of the binding of labeled ligands to M1 receptors [3]: specific and selective inhibition
Compound: Cc1scc2c1N(C(=O)CN1CCN(C)CC1)c1ccccc1NC2=O [telenzepine]
